Measured values as given in patent EP4603105A1, “PHARMACEUTICAL COMPOSITION CONTAINING CYCLIC COMPOUND HAVING SELECTIVE KRAS INHIBITORY EFFECT AGAINST HRAS AND NRAS” (CHUGAI SEIYAKU KABUSHIKI KAISHA, priority 2022, dated 2024).

Assays:
[1] = target: GDP-bound KRAS wild-type protein (Homo sapiens, UniProt P01116); experiment: Binding to KRAS by surface plasmon resonance (SPR), dissociation constant KD; conditions: Single Cycle Kinetics, 1:1 binding model
In short: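 SPR, 30°C: Avi-biotin RAS·GDP captured via Biotin CAPture (~100–300 RU); running buffer HBS pH 7.4, 1 mM DTT, 10 mM MgCl2, 0.01% Tween 20, 10 µM GDP, 4% DMSO. Single-cycle kinetics, 100 µL/min, 75 s injections; 1:1 model → KD.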

[2] = target: GDP-bound NRAS wild-type protein (Homo sapiens, UniProt P01111); experiment: Binding to NRAS by surface plasmon resonance (SPR), KD and KD ratio to KRAS; conditions: ratio of the KD value with respect to GDP-bound NRAS wild-type protein to the KD value with respect to KRAS
GDP-bound NRAS wild-type protein, sequence (P01111 whole entry): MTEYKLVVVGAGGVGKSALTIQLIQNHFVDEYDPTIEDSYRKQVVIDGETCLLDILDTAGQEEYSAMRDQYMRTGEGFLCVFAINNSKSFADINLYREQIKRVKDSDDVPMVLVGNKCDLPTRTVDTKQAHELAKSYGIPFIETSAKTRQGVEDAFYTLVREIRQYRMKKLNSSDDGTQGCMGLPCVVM
In short: (§1)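 Measured at 30°C: SPR with GDP-loaded, E. coli-expressed biotin-Avi RAS captured (~100–300 RU), ascending 75 s compound injections, HBS pH 7.4 with GDP, MgCl2, 4% DMSO. KD from 1:1 fit.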

HRAS wild-type protein = HRAS wild-type protein (Homo sapiens, UniProt P01112); experiment: Binding to HRAS by surface plasmon resonance (SPR), KD and KD ratio to KRAS; conditions: ratio of the KD value with respect to HRAS wild-type protein to the KD value with respect to KRAS
HRAS wild-type protein, sequence (P01112 whole entry): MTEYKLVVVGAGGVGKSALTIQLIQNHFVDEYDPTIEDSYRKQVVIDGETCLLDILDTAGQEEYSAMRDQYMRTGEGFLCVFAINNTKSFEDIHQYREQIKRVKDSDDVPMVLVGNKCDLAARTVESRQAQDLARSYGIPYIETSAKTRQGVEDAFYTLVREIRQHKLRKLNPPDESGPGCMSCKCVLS
In short: as §1

[3] = tested on: human lung cancer strain NCI-H441; type: cell-based
In short: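 Signal came from […] measured per well once the reagent was added. Beforehand, cells were cultured at 37°C and 5% carbon dioxide on a compound series serially diluted in dimethyl sulfoxide.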

GDP-bound KRAS wild-type protein, sequence (P01116 1-188 isoform P01116-2): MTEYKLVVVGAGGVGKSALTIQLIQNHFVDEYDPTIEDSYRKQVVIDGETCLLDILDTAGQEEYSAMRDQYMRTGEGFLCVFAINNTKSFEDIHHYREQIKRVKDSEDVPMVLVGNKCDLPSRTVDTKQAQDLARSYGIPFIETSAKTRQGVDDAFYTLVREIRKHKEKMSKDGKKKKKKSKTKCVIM

Structure (SMILES) | Kd [1] [nM] | NRAS /KRAS [2] | HRAS /KRAS (HRAS wild-type protein) | IC50 [3] [nM]
CC[C@@H]1C[C@H]2C(=O)NC3(CCCC3)C(=O)N(C)[C@@H](C3CCCC3)C(=O)N(C)[C@H](C(=O)N(C)C)CC(=O)N(C)[C@@H](CC(C)C)C(=O)N[C@@H]([C@@H](C)CC)C(=O)N(C)CC(=O)N(C)[C@H]3C/C=C\CCN(C3=O)[C@@H](Cc3ccc(C)cc3)C(=O)N(C)CC(=O)N[C@@H](CCc3cc(F)c(C(F)(F)F)c(F)c3)C(=O)N2C1 [PP2191] | 0.23 | A (a compound having 10 or more and less than 20 is denoted as A) | B (a compound having 3 or more and less than 10 is denoted as B) | 91.6
CCC[C@H]1C(=O)N[C@@H](C2CCCC2)C(=O)N(C)CC(=O)N(C)[C@H]2C/C=C\CCN(C2=O)[C@@H](Cc2ccc(C)cc2)C(=O)N(C)CC(=O)N[C@@H](CCc2ccc(C(F)(F)F)c(Cl)c2)C(=O)N2C[C@H](OCC)C[C@H]2C(=O)NC2(CC(C)(C)C2)C(=O)N(C)[C@@H](CC(F)(F)F)C(=O)N(C)[C@H](C(=O)N(C)C)CC(=O)N1C [PP2192] | 3.3 | A (a compound having 10 or more and less than 20 is denoted as A) | A (a compound having 10 or more and less than 20 is denoted as A) | 91.9
CCC[C@@H]1C[C@H]2C(=O)NC3(CCCC3)C(=O)N(C)[C@@H](C3CCCC3)C(=O)N(C)[C@H](C(=O)N(C)C)CC(=O)N(C)[C@@H](CC(C)C)C(=O)N[C@@H]([C@@H](C)CC)C(=O)N(C)CC(=O)N(C)[C@H]3C/C=C\CCN(C3=O)[C@@H](Cc3ccc(C)cc3)C(=O)N(C)CC(=O)N[C@@H](CCc3cc(F)c(C(F)(F)F)c(F)c3)C(=O)N2C1 [PP2193] | 0.41 | A (a compound having 10 or more and less than 20 is denoted as A) | A (a compound having 10 or more and less than 20 is denoted as A) | 33.1
CCC[C@H]1C(=O)N[C@@H](C(CC)CC)C(=O)N(C)CC(=O)N(C)[C@H]2C/C=C\CCN(C2=O)[C@@H](Cc2ccc(C)cc2)C(=O)N(C)CC(=O)N[C@@H](CCc2ccc(C(F)(F)F)c(Cl)c2)C(=O)N2C[C@H](OCC)C[C@H]2C(=O)NC2(CC(C)(C)C2)C(=O)N(C)[C@@H](CC(C)C)C(=O)N(C)[C@H](C(=O)N(C)C)CC(=O)N1C [PP2202] | 4.9 | A (a compound having 10 or more and less than 20 is denoted as A) | A (a compound having 10 or more and less than 20 is denoted as A) | 94.7
CCCOC[C@H]1C(=O)N[C@@H]([C@@H](C)CC)C(=O)N(C)CC(=O)N(C)[C@H]2C/C=C\CCN(C2=O)[C@@H](Cc2ccc(C)cc2)C(=O)N(C)CC(=O)N[C@@H](CCc2cc(F)c(C(F)(F)F)c(F)c2)C(=O)N2C[C@H](CCC)C[C@H]2C(=O)NC2(CC(C)(C)C2)C(=O)N(C)[C@@H](C2CCCC2)C(=O)N(C)[C@H](C(=O)N(C)C)CC(=O)N1C [PP2203] | 0.34 | A (a compound having 10 or more and less than 20 is denoted as A) | A (a compound having 10 or more and less than 20 is denoted as A) | 20.5
CCC[C@H]1C(=O)N[C@@H]([C@@H](C)CC)C(=O)N(C)CC(=O)N(C)[C@H]2C/C=C\CCN(C2=O)[C@@H](Cc2ccc(C)cc2)C(=O)N(C)CC(=O)N[C@@H](CCc2ccc(C(F)(F)F)c(Cl)c2)C(=O)N2C[C@H](C)C[C@H]2C(=O)NC2(CC(C)(C)C2)C(=O)N(C)[C@@H](C2CCCC2)C(=O)N(C)[C@H](C(=O)N(C)C)CC(=O)N1C [PP2210] | 0.13 | A (a compound having 10 or more and less than 20 is denoted as A) | B (a compound having 3 or more and less than 10 is denoted as B) | 6.2
CCC[C@@H]1C[C@H]2C(=O)NC3(CC(C)(C)C3)C(=O)N(C)[C@@H](C3CCCC3)C(=O)N(C)[C@H](C(=O)N(C)C)CC(=O)N(C)[C@@H](CCC)C(=O)N[C@@H]([C@@H](C)CC)C(=O)N(C)CC(=O)N(C)[C@H]3C/C=C\CCN(C3=O)[C@@H](Cc3ccc(C)cc3)C(=O)N(C)CC(=O)N[C@@H](CCc3ccc(C(F)(F)F)c(Cl)c3)C(=O)N2C1 [PP2214] | 0.3 | A (a compound having 10 or more and less than 20 is denoted as A) | A (a compound having 10 or more and less than 20 is denoted as A) | 29.6
CCC[C@H]1C(=O)N[C@@H]([C@@H](C)CC)C(=O)N(C)CC(=O)N(C)[C@H]2C/C=C\CCN(C2=O)[C@@H](Cc2ccc(C)cc2)C(=O)N(C)CC(=O)N[C@@H](CCc2cc(F)c(C(F)(F)F)c(F)c2)C(=O)N2C[C@H](CC)C[C@H]2C(=O)NC2(CCCC2)C(=O)N(C)[C@@H](C2CCCC2)C(=O)N(C)[C@H](C(=O)N(C)C)CC(=O)N1C [PP2216] | 0.23 | A (a compound having 10 or more and less than 20 is denoted as A) | A (a compound having 10 or more and less than 20 is denoted as A) | 50.8
CCCOC[C@H]1C(=O)N[C@@H]([C@@H](C)CC)C(=O)N(C)CC(=O)N(C)[C@H]2C/C=C\CCN(C2=O)[C@@H](Cc2ccc(C)cc2)C(=O)N(C)CC(=O)N[C@@H](CCc2cc(F)c(C(F)(F)F)c(F)c2)C(=O)N2C[C@H](CC)C[C@H]2C(=O)NC2(CCCC2)C(=O)N(C)[C@@H](C2CCCC2)C(=O)N(C)[C@H](C(=O)N(C)C)CC(=O)N1C [PP2218] | 0.29 | A (a compound having 10 or more and less than 20 is denoted as A) | A (a compound having 10 or more and less than 20 is denoted as A) | 24
CCC[C@H]1C(=O)N[C@@H]([C@H](C)CC)C(=O)N(C)CC(=O)N(C)[C@H]2C/C=C\CCN(C2=O)[C@@H](Cc2ccc(C)cc2)C(=O)N(C)CC(=O)N[C@@H](CCc2ccc(C(F)(F)F)c(Cl)c2)C(=O)N2C[C@H](OCC)C[C@H]2C(=O)NC2(CC(C)(C)C2)C(=O)N(C)[C@@H](CC(C)(C)C)C(=O)N(C)[C@H](C(=O)N(C)C)CC(=O)N1C [PP2219] | 1.6 | A (a compound having 10 or more and less than 20 is denoted as A) | A (a compound having 10 or more and less than 20 is denoted as A) | 50.9
CC[C@@H]1C[C@H]2C(=O)NC3(CCC3)C(=O)N(C)[C@@H](C3CCCC3)C(=O)N(C)[C@H](C(=O)N(C)C)CC(=O)N(C)[C@@H](CC(C)C)C(=O)N[C@@H]([C@@H](C)CC)C(=O)N(C)CC(=O)N(C)[C@H]3C/C=C\CCN(C3=O)[C@@H](Cc3ccc(C)cc3)C(=O)N(C)CC(=O)N[C@@H](CCc3cc(F)c(C(F)(F)F)c(F)c3)C(=O)N2C1 [PP2220] | 0.14 | A (a compound having 10 or more and less than 20 is denoted as A) | A (a compound having 10 or more and less than 20 is denoted as A) | 32.1
CCC[C@H]1C(=O)N[C@@H]([C@H](C)CC)C(=O)N(C)CC(=O)N(C)[C@H]2C/C=C\CCN(C2=O)[C@@H](Cc2ccc(C)cc2)C(=O)N(C)CC(=O)N[C@@H](CCc2ccc(C(F)(F)F)c(Cl)c2)C(=O)N2C[C@H](OCC)C[C@H]2C(=O)NC2(CC(C)(C)C2)C(=O)N(C)[C@@H](C2CCCC2)C(=O)N(C)[C@H](C(=O)N(C)C)CC(=O)N1C [PP2221] | 1.7 | A (a compound having 10 or more and less than 20 is denoted as A) | A (a compound having 10 or more and less than 20 is denoted as A) | 40.5
CC[C@H](C)[C@@H]1NC(=O)[C@H](CC(C)C)N(C)C(=O)C[C@@H](C(=O)N(C)C)N(C)C(=O)[C@H](C2CCCC2)N(C)C(=O)C2(CC(C)(C)C2)NC(=O)[C@@H]2C[C@@H](C)CN2C(=O)[C@H](CCc2cc(F)c(C(F)(F)F)c(F)c2)NC(=O)CN(C)C(=O)[C@H](Cc2ccc(C)cc2)N2CC/C=C\C[C@@H](C2=O)N(C)C(=O)CN(C)C1=O [PP2223] | 0.1 | A (a compound having 10 or more and less than 20 is denoted as A) | A (a compound having 10 or more and less than 20 is denoted as A) | 5.3
CCCOC[C@H]1C(=O)N[C@@H]([C@@H](C)CC)C(=O)N(C)CC(=O)N(C)[C@H]2C/C=C\CCN(C2=O)[C@@H](Cc2ccc(C)cc2)C(=O)N(C)CC(=O)N[C@@H](CCc2cc(F)c(C(F)(F)F)c(F)c2)C(=O)N2C[C@H](C)C[C@H]2C(=O)NC2(CCCC2)C(=O)N(C)[C@@H](C2CCCC2)C(=O)N(C)[C@H](C(=O)N(C)C)CC(=O)N1C [PP2225] | 0.2 | A (a compound having 10 or more and less than 20 is denoted as A) | A (a compound having 10 or more and less than 20 is denoted as A) | 41.4
